Like-named read-outs stand apart in the source and are kept apart here.
Test: Single escalating dose IV infusion pharmacokinetics in healthy volunteers (noncompartmental)
Assay type: in vivo, human
Conditions: both sexes, human, plasma, iv; for concentration at 24.5 h: read-out: concentration at 24.5 hours after the start of infusion; for concentration at 0.25 h / concentration at 0.5 h / concentration at 0.75 h / concentration at 1 h / concentration at 2.5 h / concentration at 3.5 h / concentration at 8.5 h / concentration at 12.5 h / concentration at 6.5 h: r7-9=Subjects 1-3,r11=Mean,r13=Min,r14=Median,r15=Max,r17=Geometric Mean; for concentration at 0.5 h: Time 0.50 h
Procedure: Forty-five subjects have enrolled in the study.
Analysis of plasma concentration versus time data for calculation of standard pharmacokinetic (PK) parameters following intravenous infusion administration was conducted using Phoenix WinNonlin version 6.3 using a nominal infusion duration and scheduled blood sampling times. Random subject numbers were assigned by the bioanalytical laboratory to retain the blind.
(§1) Analysis of plasma concentration versus time data for calculation of standard pharmacokinetic (PK) parameters following intravenous infusion administration was conducted using Phoenix WinNonlin version 6.3 using a nominal infusion duration and scheduled blood sampling times.
as §1

[1] = 6 mg/m^2, Compound 1 Concentration, Cohort 1, 6 mg/m^2 IV
[2] = 12 mg/m^2, Compound 1 Concentration, Cohort 2, 12 mg/m^2 IV
[3] = 24 mg/m2, Cohort 3, 24 mg/m^2 IV, r6-8=Subjects 1-3,r10=Mean,r12=Min,r13=Median,r14=Max,r16=Geometric Mean

For `CN1CCN(c2ccc(Nc3ncc4cc5n(c4n3)C3(CCCCC3)CNC5=O)nc2)CC1` [Compound 1, 2′-((5-(4-methylpiperazin-1-yl)pyridin-2-yl)amino)-7′,8′-dihydro-6′H-spiro[cyclohexane-1,9′-pyrazino[1′,2′:1,5]pyrrolo[2,3-d]pyrimidin]-6′-one], the concentration at 24.5 h (6 mg/m^2, Cohort 1, 6 mg/m^2 IV, 1 of 3 subjects measurable) was 0.595 ng/mL, the concentration at 0.25 h [1] was 49 ng/mL and the concentration at 0.5 h [1] was 46.9 ng/mL. It also gave a concentration at 0.75 h [1] of 16.3 ng/mL, a concentration at 1 h (6 mg/m^2, Compound 1 Concentration, Cohort 1, 6 mg/m^2 IV, Time 1.00 h) of 11.8 ng/mL and a concentration at 2.5 h (6 mg/m^2, Compound 1 Concentration, Cohort 1, 6 mg/m^2 IV, Time 2.50 h) of 4.69 ng/mL. For the same molecule, the concentration at 3.5 h (6 mg/m^2, Compound 1 Concentration, Cohort 1, 6 mg/m^2 IV, Time 3.50 h) was 3.75 ng/mL, the concentration at 8.5 h (6 mg/m^2, Compound 1 Concentration, Cohort 1, 6 mg/m^2 IV, Time 8.50 h) was 1.39 ng/mL and the concentration at 12.5 h (6 mg/m^2, Compound 1 Concentration, Cohort 1, 6 mg/m^2 IV, Time 12.50 h) was 0.752 ng/mL. For the same molecule, the AUC(0-inf) (12 mg/m2, Cohort 2, 12 mg/m^2 IV, mean, read-out: AUCinf averaged) was 148 ng·h/mL, the Cmax (12 mg/m2, Cohort 2, 12 mg/m^2 IV, mean, read-out: Cmax averaged) was 122 ng/mL and the half-life (12 mg/m2, Cohort 2, 12 mg/m^2 IV, mean, read-out: Half-lives averaged (converted)) was 8.22 h. It also gave a Tmax (12 mg/m2, Cohort 2, 12 mg/m^2 IV, median, read-out: median Tmax) of 0.5 h, an MRT inf (12 mg/m2, Cohort 2, 12 mg/m^2 IV, r6-8=Subjects 1-3,r10=Mean,r12=Min,r13=Median,r14=Max,r16=Geometric Mean) of 5.56 h and an AUC(0-inf) (12 mg/m2, Cohort 2, 12 mg/m^2 IV, r6-8=Subjects 1-3,r10=Mean,r12=Min,r13=Median,r14=Max,r16=Geometric Mean, read-out: AUCinf) of 148 ng·h/mL. For the same molecule, the Cmax (12 mg/m2, Cohort 2, 12 mg/m^2 IV, r6-8=Subjects 1-3,r10=Mean,r12=Min,r13=Median,r14=Max,r16=Geometric Mean, read-out: Cmax) was 122 ng/mL, the Tmax (12 mg/m2, Cohort 2, 12 mg/m^2 IV, r6-8=Subjects 1-3,r10=Mean,r12=Min,r13=Median,r14=Max,r16=Geometric Mean, read-out: Tmax) was 0.417 h and the half-life (12 mg/m2, Cohort 2, 12 mg/m^2 IV, r6-8=Subjects 1-3,r10=Mean,r12=Min,r13=Median,r14=Max,r16=Geometric Mean, read-out: t½ (converted)) was 8.22 h. It also gave a half-life (12 mg/m2, Cohort 2, 12 mg/m^2 IV, range over subjects, read-out: Half-lives range) of 7.56 to 8.89 h, a concentration at 24.5 h (12 mg/m^2, Cohort 2, 12 mg/m^2 IV, range over 3 subjects) of 0.506 to 1.06 ng/mL and a concentration at 0.25 h [2] of 115 ng/mL. It also gave a concentration at 0.5 h [2] of 102 ng/mL, a concentration at 0.75 h [2] of 33.2 ng/mL and a concentration at 1 h (12 mg/m^2, Compound 1 Concentration, Cohort 2, 12 mg/m^2 IV, Time 1.0 h) of 23.9 ng/mL. It also gave a concentration at 2.5 h (12 mg/m^2, Compound 1 Concentration, Cohort 2, 12 mg/m^2 IV, Time 2.5 h) of 8.75 ng/mL, a concentration at 3.5 h (12 mg/m^2, Compound 1 Concentration, Cohort 2, 12 mg/m^2 IV, Time 3.5 h) of 7.89 ng/mL and a concentration at 6.5 h [2] of 3.99 ng/mL. The concentration at 8.5 h (12 mg/m^2, Compound 1 Concentration, Cohort 2, 12 mg/m^2 IV, Time 8.5 h) was 2.79 ng/mL, the concentration at 12.5 h (12 mg/m^2, Compound 1 Concentration, Cohort 2, 12 mg/m^2 IV, Time 12.5 h) was 1.65 ng/mL and the AUC(0-inf) (24 mg/m2, Cohort 3, 24 mg/m^2 IV, mean, read-out: AUCinf averaged) was 287 ng·h/mL. It also gave a Cmax (24 mg/m2, Cohort 3, 24 mg/m^2 IV, mean, read-out: Cmax averaged) of 252 ng/mL, a half-life (24 mg/m2, Cohort 3, 24 mg/m^2 IV, mean, read-out: Half-lives averaged (converted)) of 9.88 h and a Tmax (24 mg/m2, Cohort 3, 24 mg/m^2 IV, median, read-out: median Tmax) of 0.5 h. The AUC(0-t) [3] was 261 ng·h/mL, the MRT inf [3] was 6.65 h and the AUC(0-inf) (24 mg/m2, Cohort 3, 24 mg/m^2 IV, r6-8=Subjects 1-3,r10=Mean,r12=Min,r13=Median,r14=Max,r16=Geometric Mean, read-out: AUCinf) was 287 ng·h/mL. The Cmax (24 mg/m2, Cohort 3, 24 mg/m^2 IV, r6-8=Subjects 1-3,r10=Mean,r12=Min,r13=Median,r14=Max,r16=Geometric Mean, read-out: Cmax) was 252 ng/mL, the Tmax (24 mg/m2, Cohort 3, 24 mg/m^2 IV, r6-8=Subjects 1-3,r10=Mean,r12=Min,r13=Median,r14=Max,r16=Geometric Mean, read-out: Tmax) was 0.5 h and the half-life (24 mg/m2, Cohort 3, 24 mg/m^2 IV, r6-8=Subjects 1-3,r10=Mean,r12=Min,r13=Median,r14=Max,r16=Geometric Mean, read-out: t½ (converted)) was 9.88 h. For the same molecule, the half-life (24 mg/m2, Cohort 3, 24 mg/m^2 IV, range over subjects, read-out: Half-lives range) was 7.85 to 13.1 h, the concentration at 24.5 h (24 mg/m^2, Cohort 3, 24 mg/m^2 IV, range over 3 subjects) was 0.87 to 2.91 ng/mL and the concentration at 1 h (24 mg/m^2, Compound 1 Concentration, Cohort 3, 24 mg/m^2 IV, Time 1.0 h) was 39.2 ng/mL. The concentration at 2.5 h (24 mg/m^2, Compound 1 Concentration, Cohort 3, 24 mg/m^2 IV, Time 2.5 h) was 15 ng/mL, the concentration at 3.5 h (24 mg/m^2, Compound 1 Concentration, Cohort 3, 24 mg/m^2 IV, Time 3.5 h) was 11.6 ng/mL and the concentration at 6.5 h (24 mg/m^2, Compound 1 Concentration, Cohort 3, 24 mg/m^2 IV) was 6.7 ng/mL. For the same molecule, the concentration at 8.5 h (24 mg/m^2, Compound 1 Concentration, Cohort 3, 24 mg/m^2 IV, Time 8.5 h) was 4.91 ng/mL and the AUC(0-inf) (48 mg/m2, Cohort 4, 48 mg/m^2 IV, mean, read-out: AUCinf averaged) was 499 ng·h/mL.

— patent US20160220569A1, “CDK4/6 Inhibitor Dosage Formulations For The Protection Of Hematopoietic Stem And Progenitor Cells During Chemotherapy” (G1 Therapeutics, Inc., priority 2015, published 2016)
